Patent US5932555A (priority 1997, dated 1999)
Values after ≈ are worked out from the molar mass of the structure shown. Read-outs that look alike come from different tables or passages of the source.

Assays:
[1] = test system: rejection of the transplant; settings: as an immunosuppressive agent, prior art; cited from earlier work
[2] = prior art, depending on case; cited from earlier work
[3] = test system: P388/ADR; assay: Mouse in vivo antitumor test, P388/ADR transplanted
Protocol: (§1) 2×10^5 cells of P388 or P388/ADR were inoculated intraperitoneally into each of CDF1 mice (male, each weighing 20 g, 10 animals/group), and from the next day, the test solution was administered at 10, 5, and 1 mg/kg body weight/day respectively by intraperitoneal injection of 200 μl sample at each concentration once a day for 10 successive days. The numbers with time of mice which survived after administration was counted and the average survival days and T/C (survival days of treated mice/survival days of control mice) were calculated. The average body weights after 10 days were also measured.

[4] = test system: P388; assay: Cytotoxicity test on cultured tumor cell line P388 (MTT, 72 h); assay type: cell-based; settings: Mus musculus, P388, 72 h, read-out: IC50 (growth inhibition)
Protocol: (§2) Cultured tumor cell lines P388 and P388/ADR were suspended in RPMI1640 medium containing 10% heat inactivated fetal calf serum (FCS) and 20 μM 2-mercaptoethanol whereby a cell suspension (5×10^4 cells/ml) was prepared.
72 hours thereafter, cell growth was measured by a calorimetric assay method using 3-(4,5-dimethyl-2-thiazolyl)-2,5-diphenyl-2H-tetrazolium bromide (MTT) as follows: 20 μl of 2 mg/ml MTT solution was added to each well and the cells were incubated for 4 hours at 37° C. Thereafter, 50 μl of 50% dimethylformamide solution containing 20% sodium dodecyl sulfate was added to each well and allowed to stand, so that the formed violet formazan crystal was dissolved, and its absorbance at 570 nm was measured in a microplate absorbance photometer (Immunoreader) and used as an indicator of the growth.
(§3) Degree of inhibition=[1-(absorbance in presence of sample)/(absorbance in
(§4) absence of sample)]×100 (1)

[5] = test system: P388; assay: Mouse in vivo antitumor test, P388 transplanted
Protocol: as §1

[6] = test system: CDF1 mice; assay: Repeated administration toxicity test (intraperitoneal); assay type: in vivo, mouse (CDF1); settings: for Body weight, Day 0: Day 0 (baseline); for Number of survived animals, Day 4 / Number of survived animals, Day 5 / Number of survived animals, Day 6 / Number of survived animals, Day 7 / Number of survived animals, Day 8 / Number of survived animals, Day 10: of 10
Protocol: (§5) As the comparative control, test solutions of adriamycin were prepared in the same manner. […] The number with time of survived animals after administration and the average body weights on Days 0, 5, and 10 were determined.

[7] = as above; assay type: in vivo, mouse (CDF1); settings: mouse, in vivo, ip, read-out: Fatality rate
Protocol: as §5

[8] = test system: adriamycin-resistant P388; assay: Cytotoxicity test on adriamycin-resistant P388 (P388/ADR) (MTT, 72 h); assay type: cell-based; settings: Mus musculus, P388, 72 h, read-out: IC50 (growth inhibition)
Protocol: as §2
A sample examined was dissolved in methanol, then diluted with RPMI 1640 medium and subjected to serial 2-fold dilution starting at the concentration of 0.1 mg/ml. 180 μl of the cell suspension and 20 μl of the sample solution were added into a 96-well micro-titer plate and incubated at 37° C. in wet 5% CO2 gas/95% air. 72 hours thereafter, cell growth was measured by a calorimetric assay method using 3-(4,5-dimethyl-2-thiazolyl)-2,5-diphenyl-2H-tetrazolium bromide (MTT) as follows: 20 μl of 2 mg/ml MTT solution was added to each well and the cells were incubated for 4 hours at 37° C. Thereafter, 50 μl of 50% dimethylformamide solution containing 20% sodium dodecyl sulfate was added to each well and allowed to stand, so that the formed violet formazan crystal was dissolved, and its absorbance at 570 nm was measured in a microplate absorbance photometer (Immunoreader) and used as an indicator of the growth. The result was expressed in terms of the concentration of a sample at which growth was inhibited by 50% (IC50), which was determined from the relationship between sample concentrations and degrees of inhibition calculated using the following equation (1):
as §3, §4

[9] = P388/ADR, 1 mg/kg/day i.p. × 10 days
[10] = P388/ADR, 5 mg/kg/day i.p. × 10 days
[11] = P388/ADR, 10 mg/kg/day i.p. × 10 days
[12] = P388, 1 mg/kg/day i.p. × 10 days
[13] = P388, 5 mg/kg/day i.p. × 10 days
[14] = P388, 10 mg/kg/day i.p. × 10 days

For `C=CC[C@@H]1/C=C(\C)C[C@H](C)C[C@H](OC)[C@H]2O[C@@](O)(C(=O)C(=O)N3CCCC[C@H]3C(=O)O[C@H](/C(C)=C/[C@@H]3CC[C@@H](O)[C@H](OC)C3)[C@H](C)[C@@H](O)CC1=O)[C@H](C)C[C@@H]2OC` [tacrorims (FK506)], the immunosuppressive results [1] is listed as “preferable results” and the side effects [2] is listed as “obstacles to the pancreas and kidney”.
With `COc1cccc2c1C(=O)c1c(O)c3c(c(O)c1C2=O)C[C@@](O)(C(=O)CO)C[C@@H]3O[C@H]1C[C@H](N)[C@H](O)[C@H](C)O1` [Adriamycin] the T/C [3, 9] was 96%, the “average body weight after 10 days” value [3, 9] was 23.5 g and the average survival days [3, 9] was 10.7 days. It also gave a T/C [3, 10] of 63%, an average survival days [3, 10] of 7.0 days and a T/C [3, 11] of 68%. The average survival days [3, 11] was 7.5 days, the therapeutic effect ([3]; P388/ADR-transplanted mice) was “did not show therapeutic effect” and the IC50 [4] was 0.027 µg/mL (≈ 0.0497 µM). For the same compound, the T/C [5, 12] was 120%, the average survival days [5, 12] was 12.4 days and the T/C [5, 13] was 81%. It also gave an average survival days [5, 13] of 8.4 days, a T/C [5, 14] of 76% and an average survival days [5, 14] of 7.8 days. For the same compound, the “therapeutic effect (improvement in survival rate)” value ([5]; P388-transplanted mice, adriamycin 1 mg/kg/day vs 0406TP-1) was “same degree of therapeutic effect”, the “therapeutic effect at high dosage” value ([5]; more than 5 mg/kg body weight/day, due to its toxicity) was “did not show therapeutic effect” and the “Body weight, Day 0” value ([6]; 1 mg/kg/day i.p. group) was 21.9 g. For the same compound, the “Number of survived animals, Day 4” value ([6]; 1 mg/kg/day i.p. × 10 days) was 10, the “Number of survived animals, Day 5” value ([6]; 1 mg/kg/day i.p. × 10 days) was 10 and the “Number of survived animals, Day 6” value ([6]; 1 mg/kg/day i.p. × 10 days) was 10. For the same compound, the “Number of survived animals, Day 7” value ([6]; 1 mg/kg/day i.p. × 10 days) was 10, the “Number of survived animals, Day 8” value ([6]; 1 mg/kg/day i.p. × 10 days) was 10 and the “Number of survived animals, Day 10” value ([6]; 1 mg/kg/day i.p. × 10 days) was 10. For the same compound, the “Body weight, Day 5” value ([6]; 1 mg/kg/day i.p.) was 23.5 g, the “Body weight, Day 10” value ([6]; 1 mg/kg/day i.p.) was 24.5 g and the “Body weight, Day 0” value ([6]; 5 mg/kg/day i.p. group) was 21.6 g. For the same compound, the “Number of survived animals, Day 4” value ([6]; 5 mg/kg/day i.p. × 10 days) was 10, the “Number of survived animals, Day 5” value ([6]; 5 mg/kg/day i.p. × 10 days) was 9 and the “Number of survived animals, Day 6” value ([6]; 5 mg/kg/day i.p. × 10 days) was 9. The “Number of survived animals, Day 7” value ([6]; 5 mg/kg/day i.p. × 10 days) was 8, the “Number of survived animals, Day 8” value ([6]; 5 mg/kg/day i.p. × 10 days) was 3 and the “Number of survived animals, Day 10” value ([6]; 5 mg/kg/day i.p. × 10 days) was 3. The “Body weight, Day 5” value ([6]; 5 mg/kg/day i.p.) was 21.0 g, the “Body weight, Day 10” value ([6]; 5 mg/kg/day i.p.) was 15.8 g and the “Body weight, Day 0” value ([6]; 10 mg/kg/day i.p. group) was 21.8 g. The “Number of survived animals, Day 4” value ([6]; 10 mg/kg/day i.p. × 10 days) was 10, the “Number of survived animals, Day 5” value ([6]; 10 mg/kg/day i.p. × 10 days) was 9 and the “Number of survived animals, Day 6” value ([6]; 10 mg/kg/day i.p. × 10 days) was 8. For the same compound, the “Number of survived animals, Day 7” value ([6]; 10 mg/kg/day i.p. × 10 days) was 3, the “Number of survived animals, Day 8” value ([6]; 10 mg/kg/day i.p. × 10 days) was 0 and the “Number of survived animals, Day 10” value ([6]; 10 mg/kg/day i.p. × 10 days) was 0. The “Body weight, Day 5” value ([6]; 10 mg/kg/day i.p.) was 17.7 g, the “survival in repeated administration” value ([6]; i.p. 10 days, in words) was “some animals in the group given adriamycin died” and the “growth / body weight in repeated administration” value ([6]; i.p. 10 days, in words, vs control) was “growth was inferior to the control”. For the same compound, the mortality ([7]; 1 mg/kg/day i.p. × 10 days) was 0%, the mortality ([7]; 5 mg/kg/day i.p. × 10 days) was 70% and the mortality ([7]; 10 mg/kg/day i.p. × 10 days) was 100%. For the same compound, the IC50 [8] was 0.53 µg/mL (≈ 0.975 µM).
